# Assay results published in patent US9475817B2 (BRISTOL-MYERS SQUIBB COMPANY, priority 2012, dated 2016).
# Tests used:
# [1] = target: CK1ε (Homo sapiens (Human), UniProt P49674); experiment: CK1ε kinase assay (Caliper LabChip, fluoresceinated peptide substrate); assay type: biochemical; settings: 200 pM CK1ε, 50 μM ATP, 1.5 μM peptide substrate, 22 hours room temperature
# Experimental: (§1) CK1ε and CK1δ Kinase Assays
# (§2) The kinase assay was performed in V-bottom 384-well plates. […] The reaction was incubated at room temperature for 22 hours and terminated by adding 45 μl of 35 mM EDTA to each sample. […] Compounds were dissolved at 10 mM in dimethylsulfoxide (DMSO) and evaluated at eleven concentrations. IC50 values were derived by non-linear regression analysis.
# [2] = target: CK1δ (Homo sapiens (Human), UniProt P48730); experiment: CK1δ kinase assay (Caliper LabChip, fluoresceinated peptide substrate); assay type: biochemical; settings: 200 pM CK1δ, 50 μM ATP, 1.5 μM peptide substrate, 22 hours room temperature
# Experimental: as §1, §2
# CK1ε, sequence (P49674 whole entry): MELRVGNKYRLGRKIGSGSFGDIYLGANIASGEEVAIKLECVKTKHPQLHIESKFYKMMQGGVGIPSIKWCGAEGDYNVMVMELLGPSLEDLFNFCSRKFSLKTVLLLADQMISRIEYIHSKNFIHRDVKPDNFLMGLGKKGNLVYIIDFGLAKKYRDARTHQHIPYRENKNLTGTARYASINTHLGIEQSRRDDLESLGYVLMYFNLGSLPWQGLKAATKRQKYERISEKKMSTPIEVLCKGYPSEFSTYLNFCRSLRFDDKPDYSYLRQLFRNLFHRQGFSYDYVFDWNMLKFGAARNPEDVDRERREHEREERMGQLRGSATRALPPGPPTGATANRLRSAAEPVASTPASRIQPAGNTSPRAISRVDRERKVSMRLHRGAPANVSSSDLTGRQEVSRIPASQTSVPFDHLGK
# CK1δ, sequence (P48730 whole entry): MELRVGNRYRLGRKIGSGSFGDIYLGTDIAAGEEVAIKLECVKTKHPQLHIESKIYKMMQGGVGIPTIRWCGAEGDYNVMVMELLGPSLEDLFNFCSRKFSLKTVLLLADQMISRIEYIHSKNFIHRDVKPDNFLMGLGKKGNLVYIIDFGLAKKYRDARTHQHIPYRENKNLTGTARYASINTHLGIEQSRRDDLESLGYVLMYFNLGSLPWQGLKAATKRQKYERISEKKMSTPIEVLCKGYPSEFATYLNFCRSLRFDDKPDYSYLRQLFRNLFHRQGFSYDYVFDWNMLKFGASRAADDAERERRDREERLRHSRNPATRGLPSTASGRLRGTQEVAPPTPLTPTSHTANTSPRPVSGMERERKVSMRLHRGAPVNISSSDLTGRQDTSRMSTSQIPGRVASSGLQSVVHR
SMILES,IC50 [1] [nM],IC50 [2] [nM]
"Cn1cc(-c2ccc3nc(NC(=O)c4cc(-c5ccc(F)cc5)ncn4)cn3n2)c(-c2ccc(F)cc2)n1 [Compound 33, 6-(4-fluorophenyl)-N-(6-(3-(4-fluorophenyl)-1-methyl-1H-pyrazol-4-yl)imidazo[1,2-b]pyridazin-2-yl)pyrimidine-4-carboxamide]",454,30.4
"Cc1c[nH]nc1C(=O)Nc1cn2nc(-c3cn(C)nc3-c3ccc(F)cc3)ccc2n1 [Compound 34, N-(6-(3-(4-fluorophenyl)-1-methyl-1H-pyrazol-4-yl)imidazo[1,2-b]pyridazin-2-yl)-4-methyl-1H-pyrazol-3-carboxamide]",18.7,3.6
"Cn1cc(-c2ccc3nc(NC(=O)c4ncccc4Cl)cn3n2)c(-c2ccc(F)cc2)n1 [Compound 36, 3-chloro-N-(6-(3-(4-fluorophenyl)-1-methyl-1H-pyrazol-4-yl)imidazo[1,2-b]pyridazin-2-yl)picolinamide]",13.7,7.3
"Cn1cc(-c2ccc3nc(NC(=O)c4nccs4)cn3n2)c(-c2ccc(F)cc2)n1 [Compound 37, N-(6-(3-(4-fluorophenyl)-1-methyl-1H-pyrazol-4-yl)imidazo[1,2-b]pyridazin-2-yl)thiazole-2-carboxamide]",116,30.5
"Cn1cc(-c2ccc3nc(NC(=O)c4ccncn4)cn3n2)c(-c2ccc(F)cc2)n1 [Compound 38, N-(6-(3-(4-fluorophenyl)-1-methyl-1H-pyrazol-4-yl)imidazo[1,2-b]pyridazin-2-yl)pyrimidine-4-carboxamide]",43.4,10.7
"Cn1cc(-c2ccc3nc(NC(=O)C4CCOCC4)cn3n2)c(-c2ccc(F)cc2)n1 [Compound 40, N-(6-(3-(4-fluorophenyl)-1-methyl-1H-pyrazol-4-yl)imidazo[1,2-b]pyridazin-2-yl)tetrahydro-2H-pyran-4-carboxamide]",18,5.4
"COc1cc(F)cc(C(=O)Nc2cn3nc(-c4cn(C)nc4-c4ccc(F)cc4)ccc3n2)c1 [Compound 45, 3-fluoro-N-(6-(3-(4-fluorophenyl)-1-methyl-1H-pyrazol-4-yl)imidazo[1,2-b]pyridazin-2-yl)-5-methoxybenzamide]",6.8,1.9
"COc1cc(C(=O)Nc2cn3nc(-c4cn(C)nc4-c4ccc(F)cc4)ccc3n2)ccn1 [Compound 49, N-(6-(3-(4-fluorophenyl)-1-methyl-1H-pyrazol-4-yl)imidazo[1,2-b]pyridazin-2-yl)-2-methoxyisonicotinamide]",13.6,6.1
"Cc1cc(C(=O)Nc2cn3nc(-c4cn(C)nc4-c4ccc(F)cc4)ccc3n2)ccn1 [Compound 52, N-(6-(3-(4-fluorophenyl)-1-methyl-1H-pyrazol-4-yl)imidazo[1,2-b]pyridazin-2-yl)-2-methylisonicotinamide]",17.8,7.6
"Cn1cc(-c2ccc3nc(NC(=O)c4ccc(C#N)nc4)cn3n2)c(-c2ccc(F)cc2)n1 [Compound 53, 6-cyano-N-(6-(3-(4-fluorophenyl)-1-methyl-1H-pyrazol-4-yl)imidazo[1,2-b]pyridazin-2-yl)nicotinamide]",21.4,5.8
"Cn1cc(-c2ccc3nc(NC(=O)c4ccnc(F)c4)cn3n2)c(-c2ccc(F)cc2)n1 [Compound 54, 2-fluoro-N-(6-(3-(4-fluorophenyl)-1-methyl-1H-pyrazol-4-yl)imidazo[1,2-b]pyridazin-2-yl)isonicotinamide]",14,4.5
"Cn1cc(-c2ccc3nc(NC(=O)c4cc(F)cc(C#N)c4)cn3n2)c(-c2ccc(F)cc2)n1 [Compound 57, 3-cyano-5-fluoro-N-(6-(3-(4-fluorophenyl)-1-methyl-1H-pyrazol-4-yl)imidazo[1,2-b]pyridazin-2-yl)benzamide]",22.3,8.9
"Cn1cc(-c2ccc3nc(NC(=O)c4cnn(C)c4Cl)cn3n2)c(-c2ccc(F)cc2)n1 [Compound 60, 5-chloro-N-(6-(3-(4-fluorophenyl)-1-methyl-1H-pyrazol-4-yl)imidazo[1,2-b]pyridazin-2-yl)-1-methyl-1H-pyrazole-4-carboxamide]",13.1,5.5
"COc1c(F)cc(C(=O)Nc2cn3nc(-c4cn(C)nc4-c4ccc(F)cc4)ccc3n2)cc1F [Compound 61, 3,5-difluoro-N-(6-(3-(4-fluorophenyl)-1-methyl-1H-pyrazol-4-yl)imidazo[1,2-b]pyridazin-2-yl)-4-methoxybenzamide]",18.7,5.7
"Cn1cc(-c2ccc3nc(NC(=O)c4cnccc4C(F)(F)F)cn3n2)c(-c2ccc(F)cc2)n1 [Compound 63, N-(6-(3-(4-fluorophenyl)-1-methyl-1H-pyrazol-4-yl)imidazo[1,2-b]pyridazin-2-yl)-4-(trifluoromethyl) nicotinamide]",34.8,8
"COc1ccncc1C(=O)Nc1cn2nc(-c3cn(C)nc3-c3ccc(F)cc3)ccc2n1 [Compound 64, N-(6-(3-(4-fluorophenyl)-1-methyl-1H-pyrazol-4-yl)imidazo[1,2-b]pyridazin-2-yl)-4-methoxynicotinamide]",38.5,7.1
"Cn1cc(-c2ccc3nc(NC(=O)c4cccc(C(F)(F)F)n4)cn3n2)c(-c2ccc(F)cc2)n1 [Compound 65, N-(6-(3-(4-fluorophenyl)-1-methyl-1H-pyrazol-4-yl)imidazo[1,2-b]pyridazin-2-yl)-6-(trifluoromethyl) picolinamide]",158,24.7

# The next lines start with the values.
IC50 [1] [nM],IC50 [2] [nM],SMILES
9.1,2.8,"Cn1cc(-c2ccc3nc(NC(=O)c4ccncc4F)cn3n2)c(-c2ccc(F)cc2)n1 [Compound 35, 3-fluoro-N-(6-(3-(4-fluorophenyl)-1-methyl-1H-pyrazol-4-yl)imidazo[1,2-b]pyridazin-2-yl)isonicotinamide]"
11.5,4,"Cn1cc(-c2ccc3nc(NC(=O)c4ccc(CO)cc4F)cn3n2)c(-c2ccc(F)cc2)n1 [Compound 41, 2-fluoro-N-(6-(3-(4-fluorophenyl)-1-methyl-1H-pyrazol-4-yl)imidazo[1,2-b]pyridazin-2-yl)-4-(hydroxymethyl)benzamide]"
13.7,2.3,"Cn1cc(-c2ccc3nc(NC(=O)c4ccc(Br)cc4F)cn3n2)c(-c2ccc(F)cc2)n1 [Compound 42, 4-bromo-2-fluoro-N-(6-(3-(4-fluorophenyl)-1-methyl-1H-pyrazol-4-yl)imidazo[1,2-b]pyridazin-2-yl)benzamide]"
15.8,4.8,"Cn1cc(-c2ccc3nc(NC(=O)c4cc(F)cc(F)c4)cn3n2)c(-c2ccc(F)cc2)n1 [Compound 43, 3,5-difluoro-N-(6-(3-(4-fluorophenyl)-1-methyl-1H-pyrazol-4-yl)imidazo[1,2-b]pyridazin-2-yl)benzamide]"
21.2,5.6,"COc1ccc(F)c(C(=O)Nc2cn3nc(-c4cn(C)nc4-c4ccc(F)cc4)ccc3n2)c1 [Compound 44, 2-fluoro-N-(6-(3-(4-fluorophenyl)-1-methyl-1H-pyrazol-4-yl)imidazo[1,2-b]pyridazin-2-yl)-5-methoxybenzamide]"
19.9,5.2,"Cn1cc(-c2ccc3nc(NC(=O)c4cc(Cl)ccc4F)cn3n2)c(-c2ccc(F)cc2)n1 [Compound 47, 5-chloro-2-fluoro-N-(6-(3-(4-fluorophenyl)-1-methyl-1H-pyrazol-4-yl)imidazo[1,2-b]pyridazin-2-yl)benzamide]"
23.4,5.7,"Cn1cc(-c2ccc3nc(NC(=O)c4ccc(C#N)c(F)c4)cn3n2)c(-c2ccc(F)cc2)n1 [Compound 48, 4-cyano-3-fluoro-N-(6-(3-(4-fluorophenyl)-1-methyl-1H-pyrazol-4-yl)imidazo[1,2-b]pyridazin-2-yl)benzamide]"
22.9,6.3,"Cn1cc(-c2ccc3nc(NC(=O)c4cc(F)ccc4F)cn3n2)c(-c2ccc(F)cc2)n1 [Compound 51, 2,5-difluoro-N-(6-(3-(4-fluorophenyl)-1-methyl-1H-pyrazol-4-yl)imidazo[1,2-b]pyridazin-2-yl)benzamide]"
12.1,4.1,"Cn1cc(-c2ccc3nc(NC(=O)c4cc(C#N)ccc4F)cn3n2)c(-c2ccc(F)cc2)n1 [Compound 55, 5-cyano-2-fluoro-N-(6-(3-(4-fluorophenyl)-1-methyl-1H-pyrazol-4-yl)imidazo[1,2-b]pyridazin-2-yl)benzamide]"
44.9,14.4,"Cn1cc(-c2ccc3nc(NC(=O)c4ccc(F)c(C#N)c4)cn3n2)c(-c2ccc(F)cc2)n1 [Compound 56, 3-cyano-4-fluoro-N-(6-(3-(4-fluorophenyl)-1-methyl-1H-pyrazol-4-yl)imidazo[1,2-b]pyridazin-2-yl)benzamide]"
40.9,6.9,"Cn1cc(-c2ccc3nc(NC(=O)c4ccc(OC(F)F)cc4F)cn3n2)c(-c2ccc(F)cc2)n1 [Compound 58, 4-(difluoromethoxy)-2-fluoro-N-(6-(3-(4-fluorophenyl)-1-methyl-1H-pyrazol-4-yl)imidazo[1,2-b]pyridazin-2-yl)benzamide]"
22.1,7.8,"COc1cccc(C(=O)Nc2cn3nc(-c4cn(C)nc4-c4ccc(F)cc4)ccc3n2)c1F [Compound 59, 2-fluoro-N-(6-(3-(4-fluorophenyl)-1-methyl-1H-pyrazol-4-yl)imidazo[1,2-b]pyridazin-2-yl)-3-methoxybenzamide]"
28.1,7.2,"Cn1cc(-c2ccc3nc(NC(=O)c4ccc(F)cc4)cn3n2)c(-c2ccc(F)cc2)n1 [Compound 62, 4-fluoro-N-(6-(3-(4-fluorophenyl)-1-methyl-1H-pyrazol-4-yl)imidazo[1,2-b]pyridazin-2-yl)benzamide]"
